Results: ChEMBL document CHEMBL5550126, “Identification of naphthalimide-derivatives as novel PBD-targeted polo-like kinase 1 inhibitors with efficacy in drug-resistant lung cancer cells” (Eur J Med Chem, 2024)
The source made the active and inactive calls. The calls are words filed in the database; no cut-off is given here.

Tests used:
[1] = target: T1, Serine/threonine-protein kinase PLK1 (Homo sapiens, UniProt P53350); experiment: Binding affinity to PLK1 in human A549/DDP intact cells assessed as thermal stabilization at 3 uM at 44 to 64 degreeC incubated for 2 hrs by CETSA; format: cell-based
T1 sequence (P53350 whole entry): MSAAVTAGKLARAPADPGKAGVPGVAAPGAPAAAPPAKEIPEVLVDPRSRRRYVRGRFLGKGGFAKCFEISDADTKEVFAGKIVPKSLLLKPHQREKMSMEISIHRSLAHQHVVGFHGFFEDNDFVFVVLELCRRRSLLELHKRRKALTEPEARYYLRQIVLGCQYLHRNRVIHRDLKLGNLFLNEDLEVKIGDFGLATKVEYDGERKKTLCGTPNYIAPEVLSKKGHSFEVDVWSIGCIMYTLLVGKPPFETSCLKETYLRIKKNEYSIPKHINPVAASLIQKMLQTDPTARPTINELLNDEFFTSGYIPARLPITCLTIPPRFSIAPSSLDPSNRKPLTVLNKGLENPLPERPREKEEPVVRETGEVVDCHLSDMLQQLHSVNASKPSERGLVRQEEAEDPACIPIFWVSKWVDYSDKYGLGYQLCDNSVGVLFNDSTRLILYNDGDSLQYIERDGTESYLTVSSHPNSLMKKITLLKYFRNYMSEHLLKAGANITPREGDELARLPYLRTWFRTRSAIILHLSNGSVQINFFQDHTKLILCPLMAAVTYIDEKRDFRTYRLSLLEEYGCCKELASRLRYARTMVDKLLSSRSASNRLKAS

[2] = Toxicity in male BALB/c nude mouse xenografted with human A549/DDP cells assessed as change in lung index at 30 to 50 mg/kg, ip administered every 2 days for 32 days; format: organism-based, A549/CDDP; conditions: in vivo, 768 h, dose 30-50 mg/kg, time 32 day
[3] = Toxicity in male BALB/c nude mouse xenografted with human gefitinib resistant NCI-H1975 cells assessed as reduction in body weight at 30 mg/kg, po administered every 2 days for 20 days and measured 3 times a week; format: organism-based; conditions: in vivo, 480 h, time 20 day
[4] = Toxicity in male BALB/c nude mouse xenografted with human A549/DDP cells assessed as lung damage at 30 to 50 mg/kg, ip administered every 2 days for 32 days by H and E staining based analysis; format: organism-based, A549/CDDP; conditions: in vivo, 768 h, dose 30-50 mg/kg, time 32 day
[5] = GSH reactivity of compound in PBS assessed as increase in fluorogenic response at 0 to 800 uM measured after 60 mins by fluorescence spectrophotometer; format: physicochemical; conditions: buffer, 1 h, dose 0-800 µM
[6] = Toxicity in male BALB/c nude mouse xenografted with human A549/DDP cells assessed as change in heart index at 30 mg/kg, ip administered every 2 days for 32 days; format: organism-based, A549/CDDP; conditions: in vivo, 768 h, time 32 day
[7] = Antitumor activity against human gefitinib resistant NCI-H1975 cells xenografted in male BALB/c nude mouse assessed as inhibition of tumor growth at 30 mg/kg, po administered every 2 days for 20 days and measured 3 times a week relative to control; format: functional; conditions: gefitinib resistant NCI-H1975 cell, 480 h, time 20 day, read-out: TGI
[8] = target: T1, Serine/threonine-protein kinase PLK1; experiment: Binding affinity to FLAG-tagged PLK1 PBD region (unknown origin) transfected in human A549 cells at 10 uM incubated for 1 hr by coimmunoprecipitation-MS analysis; format: cell-based
A549 [9] = experiment: Induction of morphological changes in human A549 cells assessed as increase in mitotic catastrophe in nucleus at 0 to 3 uM measured after 48 hrs by immunofluorescence based laser confocal microscopic analysis; format: functional, cell-based; conditions: dose 0-3 µM
[10] = Toxicity in male BALB/c nude mouse xenografted with human A549/DDP cells assessed as liver damage at 30 to 50 mg/kg, ip administered every 2 days for 32 days by H and E staining based analysis; format: organism-based, A549/CDDP; conditions: in vivo, 768 h, dose 30-50 mg/kg, time 32 day
[11] = GSH reactivity in human A549/DDP cells assessed as increase in fluorescence intensity measured after 48 hrs; format: ADME, cell-based; conditions: dose 0-9 µM
A549/CDDP [12] = experiment: Effect on p21 protein expression in human A549/DDP cells assessed as effect on protein abundance at 0 to 6 uM measured after 48 hrs by Western blot analysis; format: functional, cell-based; conditions: dose 0-6 µM
[13] = Binding affinity to cysteine in PBS assessed as increase in fluorogenic response at 5 uM by UV lamp irradiation/fluorescence spectrophotometer
T-24 = experiment: Anticancer activity against human T24 cells assessed as inhibition of cell growth incubated for 48 hrs by crystal violet staining based analysis; format: functional; conditions: T-24, 48 h
[14] = target: T1, Serine/threonine-protein kinase PLK1; experiment: Binding affinity to recombinant PLK1 (unknown origin) assessed as signal attenuation at 200 uM by NMR analysis
[15] = GSH reactivity in human A549 cells assessed as increase in fluorescence intensity measured after 48 hrs; format: ADME, cell-based; conditions: a549, 48 h, dose 0-9 µM
[16] = target: T1, Serine/threonine-protein kinase PLK1; experiment: Binding affinity to FLAG-tagged PLK1 kinase region (unknown origin) transfected in human A549 cells at 10 uM incubated for 1 hr by coimmunoprecipitation-MS analysis; format: cell-based
A549 [17] = experiment: Anticancer activity against human A549 cells assessed as inhibition of cell growth incubated for 48 hrs by crystal violet staining based analysis; format: functional; conditions: A549, 48 h
A549 [18] = experiment: Induction of mitotic catastrophe in human A549 cells assessed as reduction in PRC1 recruitment by PLK1 in anaphase at 1.5 to 3 uM measured after 48 hrs by immunostaining based laser confocal microscopic analysis; format: functional, cell-based; conditions: dose 1.5-3 µM
A549/CDDP [19] = experiment: Antitumor activity against human A549/DDP cells assessed as male BALB/c nude mouse assessed as tumor regression at 50 mg/kg, ip administered every 2 days for 32 days and measured 3 times a week; format: functional, organism-based; conditions: time 32.0 day
SK-OV-3 = experiment: Anticancer activity against human SK-OV-3 cells assessed as inhibition of cell growth incubated for 48 hrs by crystal violet staining based analysis; format: functional; conditions: SK-OV-3, 48 h
A549/CDDP [20] = experiment: Effect on cyclin A2 protein expression in human A549/DDP cells assessed as effect on protein abundance at 0 to 6 uM measured after 48 hrs by Western blot analysis; format: functional, cell-based; conditions: dose 0-6 µM
[21] = Toxicity in male BALB/c nude mouse xenografted with human A549/DDP cells assessed as reduction in body weight at 30 to 50 mg/kg, ip administered every 2 days for 32 days and measured 3 times a week; format: organism-based, A549/CDDP; conditions: in vivo, 768 h, dose 30-50 mg/kg, time 32 day
A549 [22] = experiment: Induction of mitotic catastrophe in human A549 cells assessed as appearance of multinucleated cells during mitosis at 1.5 uM measured after 48 hrs by immunostaining based laser confocal microscopic analysis; format: functional, cell-based
A549/CDDP [23] = experiment: Disruption of redox homeostasis in human A549/DDP cells assessed as increase in ROS level at 0 to 9 uM measured after 48 hrs; format: functional, cell-based; conditions: dose 0-9 µM
MGC-803 = experiment: Anticancer activity against human MGC-803 cells assessed as inhibition of cell growth incubated for 48 hrs by crystal violet staining based analysis; format: functional; conditions: MGC-803, 48 h
A549/CDDP [24] = experiment: Effect on CDK2 protein expression in human A549/DDP cells assessed as effect on protein abundance at 0 to 6 uM measured after 48 hrs by Western blot analysis; format: functional, cell-based; conditions: dose 0-6 µM
A549/CDDP [25] = experiment: Effect on c-Myc protein expression in human A549/DDP cells assessed as effect on protein abundance at 0 to 6 uM measured after 48 hrs by Western blot analysis; format: functional, cell-based; conditions: dose 0-6 µM
MCF7 = experiment: Anticancer activity against human MCF7 cells assessed as inhibition of cell growth incubated for 48 hrs by crystal violet staining based analysis; format: functional; conditions: MCF7, 48 h
[26] = Antiproliferative activity against human gefitinib resistant NCI-H1975 cells assessed as inhibition of cell growth incubated for 48 hrs by crystal violet staining based analysis; format: functional
[27] = Toxicity in male BALB/c nude mouse xenografted with human gefitinib resistant NCI-H1975 cells assessed as lung damage at 30 mg/kg, po administered every 2 days for 20 days and measured 3 times a week by H and E staining based analysis; format: organism-based; conditions: in vivo, 480 h, time 20 day
A549/CDDP [28] = experiment: Antitumor activity against human A549/DDP cells assessed as male BALB/c nude mouse assessed as median survival time at 50 mg/kg, ip administered every 2 days for 32 days (reference value: 38 days); format: functional; conditions: time 32 day
A549/CDDP [29] = experiment: Antitumor activity against human A549/DDP cells assessed as male BALB/c nude mouse assessed as median survival time at 30 mg/kg, ip administered every 2 days for 32 days (reference value: 38 days); format: functional; conditions: time 32 day
A549/CDDP [30] = experiment: Disruption of redox homeostasis in human A549/DDP cells assessed as induction of cell death; format: functional, cell-based

## CN(C)CCN1C(=O)c2cccc3c(S(=O)(=O)NCc4ccc(F)cc4)ccc(c23)C1=O
[1]
  Activity: Active
[2]
  Activity: Non-Toxic
[3]
  Activity: Non-Toxic
[4]
  Activity: Non-Toxic
[5]
  Drug metabolism: Metabolite_Detected
[6]
  Activity: Toxic
[7]
  inhibition in vivo at 30 mg/kg: 44%
[8]
  Activity: Active
A549 [9]
  Activity: Active
[10]
  Activity: Non-Toxic
[11]
  Drug metabolism: Metabolite_Detected
A549/CDDP [12]
  Activity: Active
[13]
  Activity: inactive
T-24
  IC50: 2900 nM
[14]
  Activity: Active
[15]
  Drug metabolism: Metabolite_Detected
[16]
  Activity: inactive
A549 [17]
  IC50: 10.6 µM
A549 [18]
  Activity: Active
A549/CDDP [19]
  Activity: Active
SK-OV-3
  IC50: 2840 nM
A549/CDDP [20]
  Activity: Active
[21]
  Activity: Non-Toxic
A549 [22]
  Activity: Active
A549/CDDP [23]
  Activity: Active
MGC-803
  IC50: 3.2 µM
A549/CDDP [24]
  Activity: Active
A549/CDDP [25]
  Activity: Active
MCF7
  IC50: 6.54 µM
[26]
  IC50: 7.83 µM
[27]
  Activity: Non-Toxic
A549/CDDP [28]
  MSD: 62 days
A549/CDDP [29]
  MSD: 53 days
A549/CDDP [30]
  Activity: Active
